Legend:
Assay type in all cases: in vivo
[1] = system: pigweed (Amaranthus retroflexus); assay: Test A postemergence, pigweed; conditions: 0 to 100 scale
In short: (§1)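 Post: seedlings 2–10 cm, 1–2 leaves, foliar spray. Pre: soil spray after sowing in loam/sand blend. Both formulated in non-phytotoxic solvent with surfactant; injury scored visually 0–100 after ~10 d.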

[2] = system: ducksalad (Heteranthera limosa); assay: Test B flooded paddy test, ducksalad; conditions: Flood, 250 g ai/ha, applied to paddy water, 2-leaf stage, visual evaluation after 13 to 15 d
In short: (§2)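 Plants grown to 2-leaf stage. Compounds applied directly into paddy water flooded 3 cm above soil, with that depth kept throughout. After 13–15 d in greenhouse, visual rating versus controls on a 0–100 scale (0 no effect, 100 complete control).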

[3] = system: ryegrass, Italian (Lolium multiflorum); assay: Test A preemergence, Italian ryegrass; conditions: 0 to 100 scale
In short: as §1

[4] = system: corn (Zea mays); assay: Test A postemergence, corn; conditions: 0 to 100 scale
In short: as §1

[5] = system: sedge, umbrella (small-flower umbrella sedge, Cyperus difformis); assay: Test B flooded paddy test, umbrella sedge; conditions: Flood, 250 g ai/ha, applied to paddy water, 2-leaf stage, visual evaluation after 13 to 15 d
In short: as §2

[6] = system: barnyardgrass (Echinochloa crus-galli); assay: Test A postemergence, barnyardgrass; conditions: 0 to 100 scale
In short: as §1

[7] = system: ragweed (common ragweed, Ambrosia elatior); assay: Test A postemergence, ragweed; conditions: 0 to 100 scale
In short: as §1

[8] = system: galium (catchweed bedstraw, Galium aparine); assay: Test A postemergence, galium; conditions: 0 to 100 scale
In short: as §1

[9] = system: kochia (Kochia scoparia); assay: Test A postemergence, kochia; conditions: 0 to 100 scale
In short: as §1

[10] = system: rice (Oryza sativa); assay: Test B flooded paddy test, rice; conditions: Flood, 250 g ai/ha, applied to paddy water, 2-leaf stage, visual evaluation after 13 to 15 d
In short: as §2

[11] = system: ragweed (common ragweed, Ambrosia elatior); assay: Test A preemergence, ragweed; conditions: 0 to 100 scale
In short: as §1

[12] = system: pigweed (Amaranthus retroflexus); assay: Test A preemergence, pigweed; conditions: 0 to 100 scale
In short: as §1

[13] = system: blackgrass (Alopecurus myosuroides); assay: Test A postemergence, blackgrass; conditions: 0 to 100 scale
In short: as §1

[14] = system: foxtail, giant (Setaria faberii); assay: Test A postemergence, giant foxtail; conditions: 0 to 100 scale
In short: as §1

[15] = system: foxtail, giant (Setaria faberii); assay: Test A preemergence, giant foxtail; conditions: 0 to 100 scale
In short: as §1

[16] = system: kochia (Kochia scoparia); assay: Test A preemergence, kochia; conditions: 0 to 100 scale
In short: as §1

[17] = system: barnyardgrass (Echinochloa crus-galli); assay: Test A preemergence, barnyardgrass; conditions: 0 to 100 scale
In short: as §1

[18] = system: ryegrass, Italian (Lolium multiflorum); assay: Test A postemergence, Italian ryegrass; conditions: 0 to 100 scale
In short: as §1

[19] = system: wheat (Triticum aestivum); assay: Test A postemergence, wheat; conditions: 0 to 100 scale
In short: as §1

[20] = system: barnyardgrass (Echinochloa crus-galli); assay: Test B flooded paddy test, barnyardgrass; conditions: Flood, 250 g ai/ha, applied to paddy water, 2-leaf stage, visual evaluation after 13 to 15 d
In short: as §2

## CCc1ccc2oc([C@@H](C)Nc3ncc(C(F)(F)F)c(N)n3)cc2c1 [Compound 17]
[1]; 125 g ai/ha
  Plant response rating, Pigweed: 0
[1]; 500 g ai/ha
  Plant response rating, Pigweed: 20
[2]
  Plant response rating, Ducksalad (0 to 100 scale, 0 is no effect, 100 is complete control): 0
[3]; 125 g ai/ha
  Plant response rating, Ryegrass, Italian: 0
[3]; 500 g ai/ha
  Plant response rating, Ryegrass, Italian: 20
[4]; 125 g ai/ha
  Plant response rating, Corn: 0
[4]; 500 g ai/ha
  Plant response rating, Corn: 0
[5]
  Plant response rating, Sedge, Umbrella (0 to 100 scale, 0 is no effect, 100 is complete control): 0
[6]; 125 g ai/ha
  Plant response rating, Barnyardgrass: 0
[6]; 500 g ai/ha
  Plant response rating, Barnyardgrass: 0
[7]; 125 g ai/ha
  Plant response rating, Ragweed: 0
[7]; 500 g ai/ha
  Plant response rating, Ragweed: 20
[8]; 125 g ai/ha
  Plant response rating, Galium: 0
[8]; 500 g ai/ha
  Plant response rating, Galium: 0
[9]; 125 g ai/ha
  Plant response rating, Kochia: 0
[9]; 500 g ai/ha
  Plant response rating, Kochia: 0
[10]
  Plant response rating, Rice (0 to 100 scale, 0 is no effect, 100 is complete control): 0
[11]; 125 g ai/ha
  Plant response rating, Ragweed: 0
[11]; 500 g ai/ha
  Plant response rating, Ragweed: 50
[12]; 125 g ai/ha
  Plant response rating, Pigweed: 0
[12]; 500 g ai/ha
  Plant response rating, Pigweed: 0
[13]; 125 g ai/ha
  Plant response rating, Blackgrass: 0
[13]; 500 g ai/ha
  Plant response rating, Blackgrass: 0
[14]; 125 g ai/ha
  Plant response rating, Foxtail, Giant: 20
[14]; 500 g ai/ha
  Plant response rating, Foxtail, Giant: 20
[15]; 125 g ai/ha
  Plant response rating, Foxtail, Giant: 0
[15]; 500 g ai/ha
  Plant response rating, Foxtail, Giant: 20
[16]; 125 g ai/ha
  Plant response rating, Kochia: 0
[16]; 500 g ai/ha
  Plant response rating, Kochia: 0
[17]; 125 g ai/ha
  Plant response rating, Barnyardgrass: 0
[17]; 500 g ai/ha
  Plant response rating, Barnyardgrass: 0
[18]; 125 g ai/ha
  Plant response rating, Ryegrass, Italian: 0
[18]; 500 g ai/ha
  Plant response rating, Ryegrass, Italian: 0
[19]; 125 g ai/ha
  Plant response rating, Wheat: 0
[19]; 500 g ai/ha
  Plant response rating, Wheat: 0
[20]
  Plant response rating, Barnyardgrass (0 to 100 scale, 0 is no effect, 100 is complete control): 0

## CC[C@@H](Nc1ncc(C(F)(F)F)c(N)n1)c1cc2ccccc2o1 [Compound 21]
[1]; 1000 g ai/ha
  Plant response rating, Pigweed: 100
[2]
  Plant response rating, Ducksalad (0 to 100 scale, 0 is no effect, 100 is complete control): 60
[3]; 1000 g ai/ha
  Plant response rating, Ryegrass, Italian: 80
[4]; 1000 g ai/ha
  Plant response rating, Corn: 100
[5]
  Plant response rating, Sedge, Umbrella (0 to 100 scale, 0 is no effect, 100 is complete control): 65
[6]; 1000 g ai/ha, 0 no effect, 100 complete control
  Plant response rating, Barnyardgrass: 80
[7]; 1000 g ai/ha
  Plant response rating, Ragweed: 80
[8]; 1000 g ai/ha
  Plant response rating, Galium: 80
[9]; 1000 g ai/ha
  Plant response rating, Kochia: 90
[10]
  Plant response rating, Rice (0 to 100 scale, 0 is no effect, 100 is complete control): 0
[11]; 1000 g ai/ha
  Plant response rating, Ragweed: 100
[12]; 1000 g ai/ha
  Plant response rating, Pigweed: 100
[13]; 1000 g ai/ha
  Plant response rating, Blackgrass: 80
[14]; 1000 g ai/ha
  Plant response rating, Foxtail, Giant: 70
[15]; 1000 g ai/ha
  Plant response rating, Foxtail, Giant: 100
[16]; 1000 g ai/ha
  Plant response rating, Kochia: 80
[17]; 1000 g ai/ha
  Plant response rating, Barnyardgrass: 100
[18]; 1000 g ai/ha
  Plant response rating, Ryegrass, Italian: 50
[19]; 1000 g ai/ha
  Plant response rating, Wheat: 0
[20]
  Plant response rating, Barnyardgrass (0 to 100 scale, 0 is no effect, 100 is complete control): 0

## C[C@@H](Nc1ncc(C(F)(F)F)c(N)n1)c1cc2ccccc2o1 [Compound 22, N2-[(1R)-1-(2-benzofuranyl)ethyl]-5-(trifluoromethyl)-2,4-pyrimidinediamine]
[1]; Amaranthus retroflexus, post-emergence, 240 h, 1000 g ai/ha, read-out: Plant response rating, Pigweed
  pest or weed control at 1000 g/ha: 100%
[2]; Heteranthera limosa, 360 h, read-out: Plant response rating, Ducksalad (0 to 100 scale, 0 is no effect, 100 is complete control)
  pest or weed control at 250 g/ha: 100%
[3]; 1000 g ai/ha
  Plant response rating, Ryegrass, Italian: 100
[4]; Zea mays, post-emergence, 240 h, 1000 g ai/ha
  Corn plant response rating (crop injury, 0 = no effect, 100 = complete kill) at 1000 g/ha: 100%
[5]; Cyperus difformis, 360 h, read-out: Plant response rating, Sedge, Umbrella (0 to 100 scale, 0 is no effect, 100 is complete control)
  pest or weed control at 250 g/ha: 95%
[6]; Echinochloa crus-galli, post-emergence, 240 h, 1000 g ai/ha, 0 no effect, 100 complete control, read-out: Plant response rating, Barnyardgrass
  pest or weed control at 1000 g/ha: 100%
[7]; Ambrosia artemisiifolia, post-emergence, 240 h, 1000 g ai/ha, read-out: Plant response rating, Ragweed
  pest or weed control at 1000 g/ha: 80%
[8]; Galium, post-emergence, 240 h, 1000 g ai/ha, read-out: Plant response rating, Galium
  pest or weed control at 1000 g/ha: 90%
[9]; Bassia scoparia, post-emergence, 240 h, 1000 g ai/ha, read-out: Plant response rating, Kochia
  pest or weed control at 1000 g/ha: 80%
[10]; Oryza sativa, 360 h, read-out: Plant response rating, Rice (0 to 100 scale, 0 is no effect, 100 is complete control)
  plant injury at 250 g/ha: 0%
[11]; 1000 g ai/ha
  Plant response rating, Ragweed: 100
[12]; 1000 g ai/ha
  Plant response rating, Pigweed: 100
[13]; Alopecurus myosuroides, post-emergence, 240 h, 1000 g ai/ha, read-out: Plant response rating, Blackgrass
  pest or weed control at 1000 g/ha: 90%
[14]; Setaria faberi, post-emergence, 240 h, 1000 g ai/ha, read-out: Plant response rating, Foxtail, Giant
  pest or weed control at 1000 g/ha: 90%
[15]; 1000 g ai/ha
  Plant response rating, Foxtail, Giant: 100
[16]; 1000 g ai/ha
  Plant response rating, Kochia: 100
[17]; 1000 g ai/ha
  Plant response rating, Barnyardgrass: 100
[18]; Lolium multiflorum, post-emergence, 240 h, 1000 g ai/ha, read-out: Plant response rating, Ryegrass, Italian
  pest or weed control at 1000 g/ha: 100%
[19]; Triticum aestivum, post-emergence, 240 h, 1000 g ai/ha, read-out: Plant response rating, Wheat
  plant injury at 1000 g/ha: 40%
[20]; Echinochloa crus-galli, 360 h, read-out: Plant response rating, Barnyardgrass (0 to 100 scale, 0 is no effect, 100 is complete control)
  pest or weed control at 250 g/ha: 40%

Reference: patent US20220119354A1, “DIAMINO-SUBSTITUTED PYRIDINES AND PYRIMIDINES AS HERBICIDES” (FMC Corporation, priority 2019, published 2022)
